From patent publication US9744165B2, “Method for treating hypertension” (TSH Biopharm Corporation Ltd., priority 2010, dated 2017)

Tests used:
[1] = system: spontaneous hypertensive rats (SHR); experiment: Anti-hypertensive efficacy of monotherapy and combined therapy in spontaneous hypertensive rats (tail-cuff blood pressure); assay type: in vivo, rat
Protocol: An in vivo study was conducted to measure and compare the anti-hypertensive efficacy and tolerability of dextromethorphan and amlodipine in monotherapy and combined therapy in spontaneous hypertensive rats, an animal model for hypertension. The same study can be performed with other NADPH oxidase inhibitor and CCB.
Aged 18-week male normotensive Wistar Kyoto (WKY) and spontaneous hypertensive rats (SHR) were used in this study.
Untreated WKY and SHR were compared with SHR treated with amlodipine (1, 5 mg/kg/day) or dextromethorphan (1, 5, 25 mg/kg/day) and fix dose combination (AM+DM) using a matrix combination of above doses for 4 weeks. All the treatment groups are listed in Table 1, including G1˜G12 for SHR and G0 for WKY as a control.
Control rats (G0 and G1) received 1% solution of methylcellulose (1 ml/kg) by a gavage as a vehicle. AM and DM were suspended in 1% solution of methylcellulose and administered by a gavage in a 1 ml/kg volume. All compounds were administered for 4 weeks. Arterial blood pressure measurement and blood sampling were carried out before treatment, and after the second and forth week of drug administration.
Arterial blood pressure was measured in conscious rats with an automatic sphygmomanometer, using tail-cuff method. Before the measurements, the animals were placed inside a warming chamber (about 34° C.) for 30 min. The aim of the procedure is to calm the animals and dilate the tail blood vessels. Arterial blood pressure was measured at least three times for each animal. Changes in pressure are expressed as the percentage of baseline values.
Arterial blood pressure and blood sampling will be measured before treatment, and after the second and forth week of drug administration (FIG. 6).
Results are expressed as mean±SD. The normality of distribution was checked by means of Kolmogorov-Smirnov test with Lilliefors test. The statistical evaluation was performed using analysis of variance (ANOVA) and post hoc comparisons were performed by means of Least Significant Differences (LSD) test. If the data were not normally distributed, statistical evaluation was performed by using ANOVA (Kruskall-Wallis) and Mann-Whitney U test. Differences were considered significant when p<0.05.

[2] = system: apolipoprotein E (apoE)-deficient mice; conditions: cited from earlier work
[3] = system: animal models of hypertension; conditions: cited from earlier work

In the case of `CCOC(=O)C1=C(COCCN)NC(C)=C(C(=O)OC)C1c1ccccc1Cl` (stereo not shown) [AM, 3-ethyl 5-methyl 2-[(2-aminoethoxy)methyl]-4-(2-chlorophenyl)-1,4-dihydro-6-m ethylpyridine-3,5-dicarboxylate], the “blood pressure lowering effect (SBP, DBP, MBP)” value ([1]; AM alone at 1 and 5 mg/kg/day by gavage for 4 weeks, FIGS. 2a-d) is reported as “resulted in lowering of the blood pressure” and the “dosage response of blood pressure lowering” value ([1]; AM alone, 1 vs 5 mg/kg/day) is reported as “more pronounced with the higher dose”.
For `COc1ccc2c(c1)[C@]13CCCC[C@@H]1[C@H](C2)N(C)CC3` [DM, (+)-3-methoxy-17-methyl-9α,13α,14α-morphinan], the “blood pressure lowering effect (SBP, DBP, MBP)” value ([1]; DM alone at 1, 5 and 25 mg/kg/day by gavage for 4 weeks, FIGS. 1a-d) is given as “resulted in lowering of the blood pressure”, the “dosage response of blood pressure lowering” value ([1]; DM alone, 1 vs 5 vs 25 mg/kg/day) is given as “no clear dosage response was observed” and the superoxide production ([2]; aorta and carotid artery of apoE-deficient mice) is given as “decreases superoxide production”. The “oxidative stress, atherosclerosis and neointima formation” value ([2]; mice, through direct inhibition of NADPH oxidase) was “reduces oxidative stress and inhibits atherosclerosis and neointima formation”.
In the case of `COc1cc(C(C)=O)ccc1O` [apocynin], the blood pressure [3] is listed as “decrease blood pressure”.
